Measurements reported in patent publication EP2276483B1, “SOLID FORMS COMPRISING (+)-2-[1-(3-ETHOXY-4-METHOXYPHENYL)-2-METHYLSULFONYLETHYL]-4-ACETYLAMINOISOINDOLINE-1,3-DIONE, COMPOSITIONS THEREOF, AND USES THEREOF” (CELGENE CORPORATION, priority 2008, dated 2009).

Tests used:
[1] = test system: CD11b; experiment: fMLF-induced CD11b expression on neutrophils; assay type: cell-based; conditions: Neutrophil; human neutrophils; 30 nM fMLF
Method: CD18/CD11b (Mac-1) expression on neutrophils was measured as previously described (Derian et al., 1995, J. Immunol., 154:308-3 17) with the following modifications. Neutrophils were isolated as described above, then resuspended in complete medium at 1x10^6 cells/ml, pretreated with compounds at 10, 1, 0.1, 0.01, and 0 µM in duplicate at a final DMSO concentration of 0.1% for 10 minutes at 37°C 5%CO2. Cells were then stimulated with 30 nM fMLF for 30 minutes and then chilled to 4°C. Cells were treated with rabbit IgG (Jackson ImmunoResearch Labs, West Grove, PA, USA) (10 µg/1x10^6 cells) to block Fc receptors, stained with CD18-FITC and CD11b-PE (Becton Dickinson), and analyzed by flow cytometry on a FACSCalibur. CD18/CD11b expression (mean fluorescence) in the absence of stimulation was subtracted from all samples to obtain inhibition curves and calculate IC50 values.

[2] = test system: conscious ferret; experiment: Emesis and behavioral changes in conscious ferret; assay type: in vivo, ferrets (Mustela Pulorius Euro); conditions: for Ataxia / Backward walking / Flattened posture / Lip licking / Mouth clawing / Panting / Retches / Salivation / Vomits: severity (number of animals that responded)
Method: The conscious ferret model has been used to investigate anti-inflammatory, emetic and behavioral effects of PDE4 inhibitors when administered by the oral (p.o.) route. From these experiments, a therapeutic index (TI) for each PDE4 inhibitor may be determined. The TI has been calculated by dividing the threshold dose for causing emetic episodes and behavioral changes by the anti-inflammatory dose (dose that causes 50% inhibition of the LPS-induced neutrophilia).
PDE4 inhibitors were administered orally (p.o.), at doses initially of […], but subsequently up to 30 mg/kg in order to establish whether the TI was 10 or higher, and/or at lower doses to establish the minimum dose to cause 50% inhibition of neutrophilia. Ferrets were fasted overnight but allowed free access to water. The animals were orally dosed with vehicle or PDE4 inhibitor using a 15 cm dosing needle that was passed down the back of the throat into the oesophagus. After dosing, the animals were returned to holding cages fitted with Perspex doors to allow observation, and given free access to water. After dosing, the animals were constantly observed and any emesis or behavioral changes were recorded. The animals were allowed access to food 60 to 90 minutes after p.o. dosing.
Thirty minutes after p.o. dosing with compound or vehicle control, the ferrets were placed into sealed Perspex containers and exposed to an aerosol of LPS (100 µg/ml) for 10 minutes. Aerosols of LPS were generated by a nebulizer (DeVilbiss, USA) and this was directed into the Perspex exposure chamber. Following a 10 minute exposure period, the animals were returned to the holding cages and allowed free access to water, and at a later stage, food. Observation continued for a period of at least 2.5 hours post p.o. dosing and emetic episodes and behavioral changes were recorded.
2. Emetic episodes - the number of vomits and retches were counted.
3. Behavioral changes - the following behavioral effects were noted: salivation, panting, mouth clawing, flattened posture, ataxia, arched back and backward walking. Any behavioral changes were semi-quantified by applying a severity rating (mild, moderate or severe).
4. The TI was calculated as the highest dose found to not cause emetic episodes divided by the lowest dose found to inhibit pulmonary neutrophilia by 50% or more.
Numbers in parentheses refer to the number of animals that responded. The numbers of animals in each group range from 4 to 22.
From these experiments, a therapeutic index (TI) was determined for each compound by dividing the threshold dose for inducing emetic episodes by the ED50 value for inhibiting the pulmonary neutrophilia. […] Table 4. Summary of the effective doses (ED50) for inhibition of LPS-induced pulmonary neutrophilia and induction of emesis and the therapeutic index derived from these values

[3] = test system: IL-2; experiment: cells; assay type: cell-based; conditions: Homo sapiens, PBMC, read-out: IL-2 IC50

With `CCOc1cc(C(CS(C)(=O)=O)N2C(=O)c3cccc(NC(C)=O)c3C2=O)ccc1OC` (single isomer, unassigned; (+)) [Compound A, (+)-2-[1-(3-ethoxy-4-methoxyphenyl)-2-methylsulfonylethyl]-4-acetylaminoisoindoline-1,3-dione] the IC50 [1] was 74 nM, the Ataxia ([2]; 0.1 mg/kg oral) was “None” and the Backward walking ([2]; 0.1 mg/kg oral) was “Mild (3/5)”. For the same compound, the Flattened posture ([2]; 0.1 mg/kg oral) was “Mild (2/5)”, the Lip licking ([2]; 0.1 mg/kg oral) was “Mild (4/5)” and the Mouth clawing ([2]; 0.1 mg/kg oral) was “None”. For the same compound, the Panting ([2]; 0.1 mg/kg oral) was “None”, the Retches ([2]; 0.1 mg/kg oral) was “None” and the Salivation ([2]; 0.1 mg/kg oral) was “None”. The Vomits ([2]; 0.1 mg/kg oral) was “None”, the Ataxia ([2]; 0.3 mg/kg oral) was “None” and the Backward walking ([2]; 0.3 mg/kg oral) was “Mild (4/6)”. The Flattened posture ([2]; 0.3 mg/kg oral) was “Mild (2/6)”, the Lip licking ([2]; 0.3 mg/kg oral) was “Mild (3/6)” and the Mouth clawing ([2]; 0.3 mg/kg oral) was “None”. For the same compound, the Panting ([2]; 0.3 mg/kg oral) was “None”, the Retches ([2]; 0.3 mg/kg oral) was “None” and the Salivation ([2]; 0.3 mg/kg oral) was “None”. For the same compound, the Vomits ([2]; 0.3 mg/kg oral) was “None”, the Ataxia ([2]; 1.0 mg/kg oral) was “None” and the Backward walking ([2]; 1.0 mg/kg oral) was “Mild (4/6)”. For the same compound, the Flattened posture ([2]; 1.0 mg/kg oral) was “Mild (2/6)”, the Lip licking ([2]; 1.0 mg/kg oral) was “Mild (6/6)” and the Mouth clawing ([2]; 1.0 mg/kg oral) was “None”. For the same compound, the Panting ([2]; 1.0 mg/kg oral) was “None”, the Retches ([2]; 1.0 mg/kg oral) was “None” and the Salivation ([2]; 1.0 mg/kg oral) was “None”. For the same compound, the Vomits ([2]; 1.0 mg/kg oral) was “None”, the Ataxia ([2]; 3.0 mg/kg oral) was “None” and the Backward walking ([2]; 3.0 mg/kg oral) was “Moderate (5/8)”. The Flattened posture ([2]; 3.0 mg/kg oral) was “Marked (7/8)”, the Lip licking ([2]; 3.0 mg/kg oral) was “Mild (2/8)” and the Mouth clawing ([2]; 3.0 mg/kg oral) was “Mild (1/8)”. For the same compound, the Panting ([2]; 3.0 mg/kg oral) was “None”, the Retches ([2]; 3.0 mg/kg oral) was “None” and the Salivation ([2]; 3.0 mg/kg oral) was “None”. For the same compound, the Vomits ([2]; 3.0 mg/kg oral) was “None”, the Ataxia ([2]; 10 mg/kg oral) was “None” and the Backward walking ([2]; 10 mg/kg oral) was “Marked (6/6)”. For the same compound, the Flattened posture ([2]; 10 mg/kg oral) was “Marked (6/6)”, the Lip licking ([2]; 10 mg/kg oral) was “Moderate (5/6)” and the Mouth clawing ([2]; 10 mg/kg oral) was “Mild (1/6)”. The Panting ([2]; 10 mg/kg oral) was “None”, the Salivation ([2]; 10 mg/kg oral) was “Mild (1/6)” and the Vomits ([2]; 10 mg/kg oral) was “None”. For the same compound, the “behavioral changes (severity)” value ([2]; 10 mg/kg, p.o.) was “mild or moderate”, the “emetic episodes (retching and vomiting)” value ([2]; 10 mg/kg, p.o., in 2/6 ferrets) was “some retching but no frank emesis” and the Ataxia ([2]; 30 mg/kg oral) was “Mild (3/4)”. For the same compound, the Backward walking ([2]; 30 mg/kg oral) was “Mild (2/4)”, the Flattened posture ([2]; 30 mg/kg oral) was “Marked (4/4)” and the Lip licking ([2]; 30 mg/kg oral) was “Moderate (4/4)”. The Mouth clawing ([2]; 30 mg/kg oral) was “Marked (4/4)”, the Panting ([2]; 30 mg/kg oral) was “Mild (1/4)” and the Retches ([2]; 30 mg/kg oral) was “Marked (3/4)”. The Salivation ([2]; 30 mg/kg oral) was “Moderate (3/4)”, the Vomits ([2]; 30 mg/kg oral) was “Moderate (3/4)” and the “behavioral changes (severity)” value ([2]; 30 mg/kg, p.o.) was “pronounced behavioral changes”. The “emetic episodes (retching and vomiting)” value ([2]; 30 mg/kg, p.o., in 3/4 animals) was “moderate to marked emesis”, the “emetic episodes (retching and vomiting)” value ([2]; 0.1-3 mg/kg, p.o.) was “no emetic episodes” and the “behavioral changes (severity)” value ([2]; 0.1-3 mg/kg, p.o., flattened posture, lip licking and backward walking) was “mild”. For the same compound, the “Threshold emetic dose” value ([2]; conscious ferret, p.o.) was 10 mg/kg, the Therapeutic index ([2]; threshold emetic dose divided by ED50 for pulmonary neutrophilia) was 12 and the IC50 [3] was 291 nM.
